Values quoted from earlier work in patent US20230270635A1, “METHODS AND COMPOSITIONS FOR COSMETIC APPLICATIONS” (GLO Pharma, Inc., priority 2021, published 2023).

Conditions: non-ionic surfactants with HLB of 10 or less, Table 1

| Molecule | HLB |
| --- | --- |
| CCCCCCCC(=O)OCC(O)CO (stereo not shown) [Glyceryl caprylate] | HLB = 5-6 |
| CCCCCCCCCCCC(=O)OCC(O)CO (stereo not shown) [Glyceryl laurate] | HLB = 5.2 |
| CCCCCCCCCCCCCCCCCC(=O)OCC(O)CO (stereo not shown) [Glyceryl stearate] | HLB = 3.8 |
| CCCCCCCCCCCCCCCCCC(=O)OCCOC(=O)CCCCCCCCCCCCCCCCC [Glycol distearate] | HLB = 1 |
| CCCCCCCCCCCCCCCCCC(=O)OCCO [Glycol stearate] | HLB = 2.9 |
| Glyceryl stearate SE | HLB = 5.8 |
| PEG-30 dipolyhydroxy-stearate | HLB = 5.5 |
| Polyoxyethylene (3) Oleyl Ether [Oleth-3] | HLB = 6.6 |
| Polyoxyethylene (8) dilaurate [PEG-8 dilaurate] | HLB = 10 |
| Polysorbate 61 | HLB = 9.6 |
| Propylene glycol monolaurate | HLB=3 |
| Sorbitan monolaurate | HLB = 8.6 |
| Sorbitan trioleate | HLB = 1.8 |

Continued, values first:

| HLB | Molecule |
| --- | --- |
| HLB = 5.3 | CCCCCCCCCCCCCCCCOCCOCCO [Ceteth-2, Diethylene glycol hexadecyl ether] |
| HLB = 4.9 | CCCCCCCCCCCCCCCCCCOCCOCCO [Steareth-2, 2-(2-octadecoxyethoxy)ethanol] |
| HLB = 7.2 | PEG-8 dioleate |
| HLB = 8 | PEG-8 distearate |
| HLB = 4.9 | Polyoxyethylene (2) Oleyl Ether [Oleth-2] |
| HLB = 6 | Polyoxyethylene (4) dilaurate [PEG-4 dilaurate] |
| HLB = 9 | Polyoxyethylene (5) Oleyl Ether [Oleth-5] |
| HLB = 4.7 | Sorbitan Isostearate |
| HLB = 4.3 | Sorbitan monooleate |
| HLB = 6.7 | Sorbitan monopalmitate |
| HLB = 4.7 | Sorbitan monostearate |
| HLB = 3.7 | Sorbitan sesquioleate |
